Legend:
[1] = target: T1, Prostaglandin G/H synthase 2 (Mus musculus, UniProt Q05769)
T1 sequence (Q05769 whole entry): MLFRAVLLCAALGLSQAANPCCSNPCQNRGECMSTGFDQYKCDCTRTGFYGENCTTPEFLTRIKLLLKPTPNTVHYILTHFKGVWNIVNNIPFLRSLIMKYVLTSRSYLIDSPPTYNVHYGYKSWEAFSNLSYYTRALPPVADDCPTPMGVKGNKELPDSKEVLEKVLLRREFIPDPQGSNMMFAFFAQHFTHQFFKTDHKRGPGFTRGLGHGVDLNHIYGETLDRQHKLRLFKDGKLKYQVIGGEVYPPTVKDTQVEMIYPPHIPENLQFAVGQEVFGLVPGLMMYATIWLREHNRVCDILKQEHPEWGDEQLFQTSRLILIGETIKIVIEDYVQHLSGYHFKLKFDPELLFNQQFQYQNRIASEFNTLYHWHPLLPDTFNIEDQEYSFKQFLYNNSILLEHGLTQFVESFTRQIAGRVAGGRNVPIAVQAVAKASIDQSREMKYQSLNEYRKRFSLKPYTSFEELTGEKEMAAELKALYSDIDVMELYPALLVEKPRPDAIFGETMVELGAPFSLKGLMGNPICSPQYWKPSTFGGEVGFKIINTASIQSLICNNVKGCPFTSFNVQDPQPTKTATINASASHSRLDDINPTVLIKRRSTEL

[2] = target: T2, Prostaglandin G/H synthase 1 (Ovis aries, UniProt P05979); experiment: IC50 value against ovine Prostaglandin G/H synthase 1
T2 sequence (P05979 whole entry): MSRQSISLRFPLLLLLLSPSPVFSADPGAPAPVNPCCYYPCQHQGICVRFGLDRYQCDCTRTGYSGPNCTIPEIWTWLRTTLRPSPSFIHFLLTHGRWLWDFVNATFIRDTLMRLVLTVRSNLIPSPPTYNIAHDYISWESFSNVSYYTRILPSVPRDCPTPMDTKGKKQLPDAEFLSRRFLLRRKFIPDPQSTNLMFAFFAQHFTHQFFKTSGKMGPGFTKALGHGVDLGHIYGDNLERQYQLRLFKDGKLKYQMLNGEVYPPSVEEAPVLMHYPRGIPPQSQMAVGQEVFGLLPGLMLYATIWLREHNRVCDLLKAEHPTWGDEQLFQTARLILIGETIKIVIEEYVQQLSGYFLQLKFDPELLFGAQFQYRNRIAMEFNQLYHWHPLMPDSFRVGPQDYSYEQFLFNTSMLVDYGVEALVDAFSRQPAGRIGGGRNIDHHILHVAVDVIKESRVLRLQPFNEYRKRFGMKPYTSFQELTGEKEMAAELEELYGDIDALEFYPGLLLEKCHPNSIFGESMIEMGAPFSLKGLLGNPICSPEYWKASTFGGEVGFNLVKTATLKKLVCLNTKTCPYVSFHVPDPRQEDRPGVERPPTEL

[3] = target: T3, Prostaglandin G/H synthase 2 (Homo sapiens, UniProt P35354); experiment: Inhibition of recombinant human prostaglandin G/H synthase 2 (COX-2)
T3 sequence (P35354 whole entry): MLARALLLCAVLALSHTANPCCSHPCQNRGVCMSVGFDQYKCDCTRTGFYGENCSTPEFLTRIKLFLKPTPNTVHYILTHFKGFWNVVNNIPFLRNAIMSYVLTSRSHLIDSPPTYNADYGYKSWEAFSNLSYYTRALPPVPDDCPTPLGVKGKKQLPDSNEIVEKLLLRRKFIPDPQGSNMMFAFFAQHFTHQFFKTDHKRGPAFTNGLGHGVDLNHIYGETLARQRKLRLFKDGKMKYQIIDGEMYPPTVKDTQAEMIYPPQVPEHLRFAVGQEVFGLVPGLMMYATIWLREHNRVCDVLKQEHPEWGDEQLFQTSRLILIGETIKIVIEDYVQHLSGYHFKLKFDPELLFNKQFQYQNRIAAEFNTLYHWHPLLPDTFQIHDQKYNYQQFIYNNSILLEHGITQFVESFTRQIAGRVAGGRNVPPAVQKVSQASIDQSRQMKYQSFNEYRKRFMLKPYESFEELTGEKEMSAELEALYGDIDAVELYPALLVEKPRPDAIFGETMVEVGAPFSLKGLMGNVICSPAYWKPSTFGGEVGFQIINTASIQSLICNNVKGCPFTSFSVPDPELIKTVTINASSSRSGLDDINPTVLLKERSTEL

[4] = target: Prostaglandin G/H synthase 1 (Homo sapiens, UniProt P23219); experiment: IC50 value against Prostaglandin G/H synthase 1 of human platelet rich plasma; type: cell-free
[5] = target: T1, Prostaglandin G/H synthase 2; experiment: IC50 value against Prostaglandin G/H synthase 2 of murine J774A.1 cell line
Rattus norvegicus [6] = species: Rattus norvegicus; experiment: Lesion frequency was measured in rats.; type: functional
Rattus norvegicus [7] = species: Rattus norvegicus; experiment: ED50 was measured by CFE assay method.; type: functional
Rattus norvegicus [8] = species: Rattus norvegicus; experiment: Percentage of gastric damage was measured in rats.; type: functional, Stomach
Rattus norvegicus [9] = species: Rattus norvegicus; experiment: ED50 was measured by hyperalgesia assay method.; type: functional
Rattus norvegicus [10] = species: Rattus norvegicus; experiment: Percentage inhibition of the prostaglandin synthesis was measured in rats.; type: functional

Sequence of Prostaglandin G/H synthase 1 (Homo sapiens, UniProt P23219) (P23219 whole entry): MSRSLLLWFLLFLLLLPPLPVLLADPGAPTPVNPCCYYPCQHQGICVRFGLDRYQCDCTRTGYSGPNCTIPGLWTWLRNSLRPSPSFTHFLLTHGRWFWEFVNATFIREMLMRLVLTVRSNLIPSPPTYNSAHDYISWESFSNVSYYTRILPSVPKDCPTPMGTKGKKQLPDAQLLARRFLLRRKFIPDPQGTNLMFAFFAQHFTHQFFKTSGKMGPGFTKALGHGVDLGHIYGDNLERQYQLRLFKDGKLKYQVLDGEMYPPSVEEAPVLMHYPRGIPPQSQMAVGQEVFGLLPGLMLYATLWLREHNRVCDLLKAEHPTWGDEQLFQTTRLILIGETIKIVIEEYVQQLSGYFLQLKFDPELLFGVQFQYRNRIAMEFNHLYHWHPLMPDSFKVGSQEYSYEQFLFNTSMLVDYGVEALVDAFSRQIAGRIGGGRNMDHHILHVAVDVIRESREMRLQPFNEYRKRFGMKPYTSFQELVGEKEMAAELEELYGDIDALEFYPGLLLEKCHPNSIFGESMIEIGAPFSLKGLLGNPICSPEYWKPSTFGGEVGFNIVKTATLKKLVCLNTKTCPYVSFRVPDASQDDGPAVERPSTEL

| SMILES | IC50 [1] [µM] | IC50 [2] [µM] | IC50 [3] [µM] | IC50 [4] [µM] | IC50 [5] | Lesion frequency (Rattus norvegicus [6]) [%] | ED50 (Rattus norvegicus [7]) [mg/kg] | Damaged area (Rattus norvegicus [8]) [%] | ED50 (Rattus norvegicus [9]) [mg/kg] | Inhibition (Rattus norvegicus [10]) [%] |
| --- | --- | --- | --- | --- | --- | --- | --- | --- | --- | --- |
| COC(=O)CCSc1nnc(-c2cc(C(C)(C)C)c(O)c(C(C)(C)C)c2)s1 |  | > 20 | > 20 | 9.9 | Not Active |  |  |  |  |  |
| CC(C)Oc1nnc(-c2cc(C(C)(C)C)c(O)c(C(C)(C)C)c2)s1 |  | > 20 | > 20 | 4.5 | Not Active |  |  |  |  |  |
| CC(C)(C)c1cc(-c2nsc(N)n2)cc(C(C)(C)C)c1O |  | > 20 | > 20 |  |  |  |  |  |  |  |
| CCOc1nnc(-c2cc(C(C)(C)C)c(O)c(C(C)(C)C)c2)s1 | 0.07 | 3.4 | 6.1 | 1.2 |  |  |  |  |  |  |
| CCSc1nnc(-c2cc(C(C)(C)C)c(O)c(C(C)(C)C)c2)o1 | 0.015 | > 20 | 6.5 | 1.9 |  |  |  |  |  |  |
| COc1c(C(C)(C)C)cc(-c2nnc(S)s2)cc1C(C)(C)C | 0.3 | > 20 | 1.5 | > 20 |  |  |  |  |  |  |
| CCCSc1nnc(-c2cc(C(C)C)c(O)c(C(C)C)c2)s1 | 1.5 | > 20 | > 20 | > 20 |  |  |  |  |  |  |
| CC[S+]([O-])c1nnc(-c2cc(C(C)(C)C)c(O)c(C(C)(C)C)c2)s1 (stereo not drawn) | 0.23 | > 20 | > 20 | 14.6 |  |  |  |  |  |  |
| COc1ccc2c(c1)c(CC(=O)O)c(C)n2C(=O)c1ccc(Cl)cc1 [INDOMETHACIN] |  |  |  |  |  | 75 | 1.6 | 0.18 | 0.6 | 13.36 |
| CSc1nnc(-c2cc(C(C)(C)C)c(O)c(C(C)(C)C)c2)s1 | 0.009 | 0.51 | 0.15 | 0.18 |  |  |  |  |  |  |
| CC(C)(C)c1cc(-c2nnc(SCCN)s2)cc(C(C)(C)C)c1O |  | 36 | 41 | > 20 | Not Active |  |  |  |  |  |
| CCCSc1nnc(-c2cc(C(C)(C)C)c(O)c(C(C)(C)C)c2)o1 |  | > 20 | > 20 | 1.9 | Not Active |  |  |  |  |  |
| CC(=O)Nc1nc(-c2cc(C(C)(C)C)c(O)c(C(C)(C)C)c2)ns1 |  | > 20 | > 20 |  |  |  |  |  |  |  |
| CC(C)Sc1nnc(-c2cc(C(C)(C)C)c(O)c(C(C)(C)C)c2)s1 | 8.5 | > 20 | > 20 | 13.6 |  |  |  |  |  |  |
| C[S+]([O-])c1nnc(-c2cc(C(C)(C)C)c(O)c(C(C)(C)C)c2)s1 (stereo not drawn) |  | > 20 | > 20 | > 20 |  |  |  |  |  |  |
| COc1nnc(-c2cc(C(C)(C)C)c(O)c(C(C)(C)C)c2)s1 |  | 2.6 | 3 | 0.2 |  |  |  |  |  |  |
| CSc1nnc(-c2cc(C(C)(C)C)c(O)c(C(C)(C)C)c2)o1 | 0.14 | 12 |  | 1.2 |  |  |  |  |  |  |
| CS(=O)(=O)c1ccc(-n2nc(C(F)(F)F)cc2-c2ccc(F)cc2)cc1 [SC-58125] |  |  |  |  |  | 0 | > 30 | 0 | 0.3 | -1.58 |
| CCSc1nnc(-c2cc(C(C)C)c(O)c(C(C)C)c2)s1 | 1.3 | > 20 | > 20 | > 20 |  |  |  |  |  |  |
| CCSc1nnc(-c2cc(C(C)(C)C)c(O)c(C(C)(C)C)c2)s1.C[N+](C)(C)CC[O-] |  |  |  |  |  | 12.5 | 7.1 | 0.05 |  | 77.4 |
| CC(C)(C)c1cc(-c2nsc(NS(C)(=O)=O)n2)cc(C(C)(C)C)c1O |  | > 20 | > 20 |  |  |  |  |  |  |  |
| CCN(CC)CCSc1nnc(-c2cc(C(C)(C)C)c(O)c(C(C)(C)C)c2)s1 | > 20 | > 20 | 19 | > 20 |  |  |  |  |  |  |
| CC(C)(C)c1cc(-c2nnc(O)s2)cc(C(C)(C)C)c1O | 0.24 | > 20 | > 20 | 4.1 |  |  |  |  |  |  |
| CC(C)(C)c1cc(-c2nnc(NN)s2)cc(C(C)(C)C)c1O | 3.7 | 17 | 1.3 | 3.2 |  |  |  |  |  |  |

Second part, led by results:

| IC50 [1] [µM] | IC50 [2] [µM] | IC50 [3] [µM] | IC50 [4] [µM] | IC50 [5] | SMILES | Lesion frequency (Rattus norvegicus [6]) [%] | ED50 (Rattus norvegicus [7]) [mg/kg] | Damaged area (Rattus norvegicus [8]) [%] | ED50 (Rattus norvegicus [9]) [mg/kg] | Inhibition (Rattus norvegicus [10]) [%] |
| --- | --- | --- | --- | --- | --- | --- | --- | --- | --- | --- |
| 1.4 | 51 | 0.064 | 1.2 |  | CC(C)(C)c1cc(-c2noc(NC#N)n2)cc(C(C)(C)C)c1O |  |  |  |  |  |
| 0.012 | 5.8 | 0.34 | 0.77 |  | COc1c(C(C)(C)C)cc(-c2nnc(SC)s2)cc1C(C)(C)C |  |  |  |  |  |
| 0.35 | 20 |  | > 20 |  | CC(C)(C)c1cc(-c2nnc(S)s2)cc(C(C)(C)C)c1O |  |  |  |  |  |
| > 20 | 24 | 27 | 1.7 |  | CC(C)(C)c1cc(-c2nsc(N=C(N)N)n2)cc(C(C)(C)C)c1O |  |  |  |  |  |
| 0.026 | 0.097 |  | 0.2 |  | CSc1nnc(-c2nc(C(C)(C)C)c(O)c(C(C)(C)C)n2)s1 |  |  |  |  |  |
|  | > 20 | > 20 | 3.6 | Not Active | CCCOc1nnc(-c2cc(C(C)(C)C)c(O)c(C(C)(C)C)c2)s1 |  |  |  |  |  |
| > 20 | > 20 | > 20 | > 20 |  | CC(C)(C)c1cc(-c2nnc(SCc3ccccc3)s2)cc(C(C)(C)C)c1O |  |  |  |  |  |
| 0.18 | 100 | 0.14 | 3.1 |  | CCSc1nnc(-c2cc(C(C)(C)C)c(O)c(C(C)(C)C)c2)s1 |  |  |  |  |  |
| 0.21 | 88 | 17 | 2.8 |  | CC(C)(C)c1cc(-c2nnc(N=C(N)N)s2)cc(C(C)(C)C)c1O |  |  |  |  |  |
| 0.39 |  | 11 | 5.8 |  | CC(C)(C)c1cc(-c2nnc(NC#N)o2)cc(C(C)(C)C)c1O |  |  |  |  |  |
| 0.018 | 83 | 1.1 | 0.43 |  | CC(C)(C)c1cc(-c2nc(=O)s[nH]2)cc(C(C)(C)C)c1O |  |  |  |  |  |
|  | > 20 | > 20 | > 20 | Not Active | CC(C)(C)c1cc(-c2nnc(SCCC(=O)O)s2)cc(C(C)(C)C)c1O |  |  |  |  |  |
| > 20 | > 20 | > 20 | 3.2 |  | CC(C)(C)c1cc(-c2nnc(O)o2)cc(C(C)(C)C)c1O |  |  |  |  |  |
|  | > 20 | > 20 |  |  | CC(C)Sc1nnc(-c2cc(C(C)C)c(O)c(C(C)C)c2)s1 |  |  |  |  |  |
| 0.69 | 0.52 | 9.6 | 0.3 |  | CNc1nnc(-c2cc(C(C)(C)C)c(O)c(C(C)(C)C)c2)s1 |  |  |  |  |  |
|  | > 20 | 100 | 4.1 | Not Active | CCCSc1nnc(-c2cc(C(C)(C)C)c(O)c(C(C)(C)C)c2)s1 |  |  |  |  |  |
| 0.92 | > 20 | 47 | > 20 |  | CC(C)(C)c1cc(-c2nnc(S)o2)cc(C(C)(C)C)c1O |  |  |  |  |  |
|  | > 20 | > 20 | > 20 | Not Active | CC(C)(C)c1cc(-c2nnc(SCC(F)(F)F)s2)cc(C(C)(C)C)c1O |  |  |  |  |  |
|  | 24 | 100 |  |  | COc1nc(-c2cc(C(C)(C)C)c(O)c(C(C)(C)C)c2)ns1 |  |  |  |  |  |

Source: ChEMBL document CHEMBL1132622, “Synthesis, structure-activity relationships, and in vivo evaluations of substituted di-tert-butylphenols as a novel class of potent, selective, and orally active cyclooxygenase-2 inhibitors. 2. 1,3,4- and 1,2,4-thiadiazole series” (J Med Chem, 1999)
